These are literature values, as cited in patent US20140044784A1, “COMBINED FORMULATION WITH IMPROVED STABILITY” (BORYUNG PHARMACEUTICAL CO., LTD, priority 2011, published 2014).

The conditions of the data set: daily administration of a low dose (about 80 mg).

Turning to `CC(=O)Oc1ccccc1C(=O)O` [aspirin, acetylsalicylic acid], the “Reduction of heart attack, stroke, and cardiovascular mortalities” value was “at least 25%”.
